Results as given in patent EP4559908A1, “HETEROARYL DERIVATIVE COMPOUND AND USE THEREOF” (S2CBio Inc., priority 2022, dated 2024).

Target: T1, human ANO6 (variant 5) (Homo sapiens, UniProt Q4KMQ2)
T1 construct: expressed in transfected cells; host or cells: Fischer rat thyroid (FRT) cells
T1 sequence (Q4KMQ2 1-931 isoform Q4KMQ2-2): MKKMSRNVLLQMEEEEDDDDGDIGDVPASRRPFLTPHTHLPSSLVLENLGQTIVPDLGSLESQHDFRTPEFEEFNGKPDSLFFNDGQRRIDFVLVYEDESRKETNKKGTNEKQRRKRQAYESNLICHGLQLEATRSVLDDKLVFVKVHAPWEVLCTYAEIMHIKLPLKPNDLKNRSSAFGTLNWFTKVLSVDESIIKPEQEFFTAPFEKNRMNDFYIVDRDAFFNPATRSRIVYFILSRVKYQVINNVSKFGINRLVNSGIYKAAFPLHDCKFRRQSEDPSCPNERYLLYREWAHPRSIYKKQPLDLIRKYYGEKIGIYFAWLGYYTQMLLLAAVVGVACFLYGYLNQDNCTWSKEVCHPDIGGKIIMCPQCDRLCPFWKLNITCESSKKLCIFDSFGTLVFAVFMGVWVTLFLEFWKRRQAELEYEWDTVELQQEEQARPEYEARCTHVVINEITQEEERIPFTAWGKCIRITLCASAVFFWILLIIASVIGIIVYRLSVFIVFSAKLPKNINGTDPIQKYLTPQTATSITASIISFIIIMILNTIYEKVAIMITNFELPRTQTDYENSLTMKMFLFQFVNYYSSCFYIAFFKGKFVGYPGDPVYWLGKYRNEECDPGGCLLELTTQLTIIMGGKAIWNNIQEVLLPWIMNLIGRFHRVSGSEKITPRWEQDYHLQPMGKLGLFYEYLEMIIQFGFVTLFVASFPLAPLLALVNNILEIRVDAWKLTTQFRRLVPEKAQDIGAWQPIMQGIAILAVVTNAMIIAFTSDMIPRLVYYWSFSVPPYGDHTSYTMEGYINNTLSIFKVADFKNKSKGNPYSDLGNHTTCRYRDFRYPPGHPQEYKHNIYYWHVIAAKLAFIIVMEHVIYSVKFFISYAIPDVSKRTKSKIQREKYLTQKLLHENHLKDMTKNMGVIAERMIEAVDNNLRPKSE
Experiment: Lact C2 assay (measuring phosphatidylserine externalization scramblase function)
Type: cell-based
Conditions: FRT, FRT cells expressing human ANO6 (variant 5), ionomycin 10 µM, Lact-C2-GFP fluorescence, average of three tests; for inhibition at 0.05 µM: compound 50 nM, read-out: % Inhibition 50 nM; for inhibition at 1 µM: compound 1 µM, read-out: % Inhibition 1 µM
Method in brief: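 Cells were pretreated 10 min with compound (50 nM, 100 nM, 1 µM; 1% DMSO), then given 10 µM ionomycin for 10 min. Surface phosphatidylserine was stained with 500 nM Lact-C2-GFP (10 min, 37 °C), fixed and imaged. Inhibition was scaled between untreated (100%) and ionomycin-alone (0%) wells.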

Row | inhibition at 0.05 µM [%] | inhibition at 1 µM [%] | SMILES
1 | > 60 | > 60 | FC(F)(F)c1ccc2nc(-c3cccc(Nc4ccc(-c5ccccn5)cc4)c3)[nH]c2c1 [Example 98, N-[4-(2-pyridyl)phenyl]-3-[6-(trifluoromethyl)-1H-benzo[d]imidazol-2-yl]aniline]
2 | 30 to 60 | > 60 | Fc1cc2nc(-c3cccc(Nc4ncc(-c5cccnn5)cn4)c3)[nH]c2cc1F [Example 99, N-[3-(5,6-difluoro-1H-benzo[d]imidazol-2-yl)phenyl]-5-pyridazin-3-yl-pyrimidin-2-amine]
3 | > 60 | > 60 | FC(F)(F)c1ccc2nc(-c3cccc(Nc4ccc(-c5ncccn5)cn4)c3)[nH]c2c1 [Example 100, 5-pyrimidin-2-yl-N-[3-[6-(trifluoromethyl)-1H-benzo[d]imidazol-2-yl]phenyl]pyridin-2-amine]
4 | > 60 | > 60 | Cc1cccc2nc(-c3cccc(Nc4ccc(-c5cccnn5)cc4)c3)[nH]c12 [Example 101, 3-(7-methyl-1H-benzo[d]imidazol-2-yl)-N-(4-pyridazin-3-ylphenyl)aniline]
5 | > 60 | > 60 | Fc1cc2[nH]c(-c3cccc(Nc4ccc(-c5cccnn5)cc4)c3)nc2cc1Cl [Example 102, 3-(5-chloro-6-fluoro-1H-benzo[d]imidazol-2-yl)-N-(4-pyridazin-3-ylphenyl)aniline]
6 | – | > 60 | FC(F)(F)c1cc2[nH]c(-c3cccc(Nc4ncc(-c5cccnn5)cn4)c3)nc2cn1 [Example 103, 5-pyridazin-3-yl-N-[3-[6-(trifluoromethyl)-1H-imidazo[4,5-c]pyridin-2-yl]phenyl]pyrimidin-2-amine]
7 | > 60 | > 60 | Fc1cc2[nH]c(-c3cccc(Nc4ccc(-c5cccnn5)cc4)c3)nc2cc1C(F)(F)F [Example 104, 3-[6-fluoro-5-(trifluoromethyl)-1H-benzo[d]imidazol-2-yl]-N-(4-pyridazin-3-ylphenyl)aniline]
8 | > 60 | > 60 | Cc1ccc2nc(-c3cccc(Nc4ccc(-c5cccnn5)cc4)c3)[nH]c2c1 [Example 105, 3-(6-methyl-1H-benzo[d]imidazol-2-yl)-N-(4-pyridazin-3-ylphenyl)aniline]
9 | 30 to 60 | > 60 | CC(C)(C)c1ccc2nc(-c3cccc(Nc4ccc(-c5cccnn5)cc4)c3)[nH]c2c1 [Example 107, 3-(6-tert-butyl-1H-benzo[d]imidazol-2-yl)-N-(4-pyridazin-3-ylphenyl)aniline]
10 | – | 30 to 60 | COc1ccc2nc(-c3cccc(Nc4ncc(-c5cccnn5)cn4)c3)[nH]c2c1 [Example 108, N-[3-(6-methoxy-1H-benzo[d]imidazol-2-yl)phenyl]-5-pyridazin-3-yl-pyrimidin-2-amine]
11 | > 60 | > 60 | FC(F)(F)Oc1ccc2nc(-c3cccc(Nc4ccc(-c5ccncn5)cc4)c3)[nH]c2c1 [Example 109, N-(4-pyrimidin-4-ylphenyl)-3-[6-(trifluoromethoxy)-1H-benzo[d]imidazol-2-yl]aniline]
12 | 30 to 60 | > 60 | CC(C)OC(=O)c1ccc2nc(-c3cccc(Nc4ccc(-c5cccnn5)cc4)c3)[nH]c2c1 [Example 111, isopropyl 2-(3-((4-(pyridazin-3-yl)phenyl)amino)phenyl)-1H-benzo[d]imidazole-6-carboxylate]
13 | 30 to 60 | > 60 | Cc1cc2nc(-c3cccc(Nc4ccc(-c5cccnn5)cc4)c3)[nH]c2cc1F [Example 114, 3-(6-fluoro-5-methyl-1H-benzo[d]imidazol-2-yl)-N-(4-pyridazin-3-ylphenyl)aniline]
14 | – | > 60 | Clc1cccc2nc(-c3cccc(Nc4ccc(-c5cccnn5)cc4)c3)[nH]c12 [Example 115, 3-(7-chloro-1H-benzo[d]imidazol-2-yl)-N-(4-pyridazin-3-ylphenyl)aniline]
15 | – | > 60 | Clc1cc2[nH]c(-c3cccc(Nc4ccc(-c5ccncn5)cc4)c3)nc2cn1 [Example 117, 3-(6-chloro-1H-imidazo[4,5-c]pyridin-2-yl)-N-(4-pyrimidin-4-ylphenyl)aniline]
16 | > 60 | > 60 | FC(F)(F)Oc1ccc2nc(-c3cccc(Nc4ncc(-c5ccccn5)cn4)c3)[nH]c2c1 [Example 118, 5-(2-pyridyl)-N-[3-[6-(trifluoromethoxy)-1H-benzo[d]imidazol-2-yl]phenyl]pyrimidin-2-amine]
17 | 30 to 60 | > 60 | Clc1cc2[nH]c(-c3cccc(Nc4ccc(-c5ccccn5)cc4)c3)nc2cn1 [Example 119, 3-(6-chloro-1H-imidazo[4,5-c]pyridin-2-yl)-N-[4-(2-pyridyl)phenyl]aniline]
18 | > 60 | > 60 | FC(F)(F)Oc1cc2nc(-c3cccc(Nc4ncc(-c5cccnn5)cn4)c3)[nH]c2cc1Cl [Example 120, N-[3-[6-chloro-5-(trifluoromethoxy)-1H-benzo[d]imidazol-2-yl]phenyl]-5-pyridazin-3-yl-pyrimidin-2-amine]
19 | – | > 60 | c1cc(Nc2ncc(-c3ccoc3)cn2)cc(-c2nc3ccccc3[nH]2)c1 [Example 163, N-[3-(1H-benzo[d]imidazol-2-yl)phenyl]-5-(3-furyl)pyrimidin-2-amine]
20 | 30 to 60 | > 60 | c1cc(Nc2ncc(-c3ccsc3)cn2)cc(-c2nc3ccccc3[nH]2)c1 [Example 164, N-[3-(1H-benzo[d]imidazol-2-yl)phenyl]-5-(3-thienyl)pyrimidin-2-amine]
21 | 30 to 60 | > 60 | c1cc(Nc2ccc(-c3ncco3)cc2)cc(-c2nc3ccccc3[nH]2)c1 [Example 165, 3-(1H-benzo[d]imidazol-2-yl)-N-(4-oxazol-2-ylphenyl)aniline]
22 | > 60 | > 60 | c1cc(Nc2ccc(-c3cscn3)cc2)cc(-c2nc3ccccc3[nH]2)c1 [Example 166, 3-(1H-benzo[d]imidazol-2-yl)-N-(4-thiazol-4-ylphenyl)aniline]
23 | – | 30 to 60 | c1cc(Nc2ncc(-c3ncco3)cn2)cc(-c2nc3ccccc3[nH]2)c1 [Example 171, N-[3-(1H-benzo[d]imidazol-2-yl)phenyl]-5-oxazol-2-yl-pyrimidin-2-amine]
24 | – | 30 to 60 | CN(C)CCOc1ccc(-c2nc3ccc(C(F)(F)F)cc3[nH]2)cc1Nc1ccc(-c2cnccn2)cc1 [Example 174, 2-[2-(dimethylamino)ethoxy]-N-(4-pyrazin-2-ylphenyl)-5-[6-(trifluoromethyl)-1H-benzo[d]imidazol-2-yl]aniline]
25 | – | > 60 | CN1CCN(CCOc2ccc(-c3nc4ccc(C(F)(F)F)cc4[nH]3)cc2Nc2ccc(-c3cnccn3)cc2)CC1 [Example 175, 2-[2-(4-methylpiperazin-1-yl)ethoxy]-N-(4-pyrazin-2-ylphenyl)-5-[6-(trifluoromethyl)-1H-benzo[d]imidazol-2-yl]aniline]
26 | – | 30 to 60 | CN1CCN(c2ccc(-c3nc4ccc(C(F)(F)F)cc4[nH]3)cc2Nc2ncc(-c3cccnn3)cn2)CC1 [Example 176, N-(2-(4-methylpiperazin-1-yl)-5-(6-(trifluoromethyl)-lH-benzo[d]imidazol-2-yl)phenyl)-5-(pyridazin-3-yl)pyrimidin-2-amine]
27 | 30 to 60 | > 60 | Cc1cc(-c2cccnn2)ccc1Nc1cccc(-c2nc3ccccc3[nH]2)c1 [Example 203, N-(3-(1H-benzo[d]imidazol-2-yl)phenyl)-2-methyl-4-(pyridazin-3-yl)aniline]
28 | – | > 60 | Cc1cc(Nc2cccc(-c3nc4ccccc4[nH]3)c2)ccc1-c1cccnn1 [Example 204, N-(3-(1H-benzo[d]imidazol-2-yl)phenyl)-3-methyl-4-(pyridazin-3-yl)aniline]
29 | – | > 60 | Nc1cc(Nc2cccc(-c3nc4ccccc4[nH]3)c2)ccc1-c1cccnn1 [Example 207, N^1-(3-(1H-benzo[d]imidazol-2-yl)phenyl)-4-(pyridazin-3-yl)benzene-1,3-diamine]
30 | – | > 60 | COc1cc(Nc2cccc(-c3nc4ccccc4[nH]3)c2)ccc1-c1cccnn1 [Example 208, N-(3-(1H-benzo[d]imidazol-2-yl)phenyl)-3-methoxy-4-(pyridazin-3-yl)aniline]
